Measured values from patent US9969742B2, “Imidazotriazinone compounds” (Ironwood Pharmaceuticals, Inc., priority 2012, dated 2018).
Read-outs that look alike come from different tables or passages of the source. Values belong to the molecule of their own block, whether it stands above or below them.

Legend:
Format in all cases: biochemical
PDE1B = biological target: T1, PDE1B (Homo sapiens, UniProt Q01064); experiment: Phosphodiesterase enzyme screening assay, PDE1B
T1 construct: purchased Reaction Biology Corporation, Malvern, Pa
How it was run: (§1)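 Compounds were tested on commercial human PDE enzymes using a fluorescent cGMP substrate at 4.0 μM, incubated for one hour at room temperature. Values are means of four wells versus controls.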

PDE9A2 = biological target: T2, PDE9A2 (Homo sapiens, UniProt O76083); experiment: Phosphodiesterase enzyme screening assay, PDE9A2
T2 construct: purchased Reaction Biology Corporation, Malvern, Pa
How it was run: as §1

PDE1A = biological target: T3, PDE1A (Homo sapiens, UniProt P54750); experiment: Phosphodiesterase enzyme screening assay, PDE1A
T3 construct: purchased Reaction Biology Corporation, Malvern, Pa
How it was run: as §1

[1] = Table 2, ratio of IC50 values, value greater than 1 indicates greater selectivity for PDE9A2
[2] = Table 2, 10 concentrations, 4.0 μM cGMP substrate, 1 hour at R.T., read-out: Band (PDE9A2 IC50)
[3] = ratio of IC50 values, PDE1B versus PDE9A2, value greater than 1 = greater selectivity for PDE9A2
[4] = Table 3, 4.0 μM cGMP substrate, 1 hour at R.T., read-out: Band (PDE9A2 IC50)
[5] = ratio of IC50 values, PDE1A versus PDE9A2, value greater than 1 = greater selectivity for PDE9A2
[6] = ratio of IC50 values PDE1B / PDE9A2, value greater than 1 = greater selectivity for PDE9A2
[7] = 4.0 μM cGMP substrate, 1 hour at R.T., read-out: Band (PDE9A2 IC50)
[8] = ratio of IC50 values PDE1A / PDE9A2, value greater than 1 = greater selectivity for PDE9A2
[9] = ratio of IC50 values, value greater than 1 indicates greater selectivity for PDE9A2
[10] = Table 1, ratio of IC50 values, value greater than 1 indicates greater selectivity for PDE9A2
[11] = Table 1, 10 concentrations, 4.0 μM cGMP substrate, 1 hour at R.T., read-out: Band (PDE9A2 IC50)
[12] = ratio of IC50 values, PDE1B versus PDE9A2, value greater than 1 indicates greater selectivity for PDE9A2
[13] = ratio of IC50 values, PDE1A versus PDE9A2, value greater than 1 indicates greater selectivity for PDE9A2

T2 sequence (O76083 1-533 isoform O76083-2): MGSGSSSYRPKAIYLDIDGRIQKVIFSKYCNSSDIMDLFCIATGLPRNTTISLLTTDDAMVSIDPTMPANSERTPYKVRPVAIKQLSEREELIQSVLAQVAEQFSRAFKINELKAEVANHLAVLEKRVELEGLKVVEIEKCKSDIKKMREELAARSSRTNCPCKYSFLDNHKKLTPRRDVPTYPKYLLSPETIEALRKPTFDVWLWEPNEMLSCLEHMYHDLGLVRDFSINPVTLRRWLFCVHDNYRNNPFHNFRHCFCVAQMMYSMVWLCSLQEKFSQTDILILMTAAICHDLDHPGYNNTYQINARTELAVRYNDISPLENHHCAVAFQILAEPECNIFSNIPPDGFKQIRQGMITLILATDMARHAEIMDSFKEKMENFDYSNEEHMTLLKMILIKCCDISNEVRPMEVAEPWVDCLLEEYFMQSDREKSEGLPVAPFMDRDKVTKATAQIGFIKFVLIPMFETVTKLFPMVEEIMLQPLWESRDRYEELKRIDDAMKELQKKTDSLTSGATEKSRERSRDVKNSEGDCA
T1 sequence (Q01064 whole entry): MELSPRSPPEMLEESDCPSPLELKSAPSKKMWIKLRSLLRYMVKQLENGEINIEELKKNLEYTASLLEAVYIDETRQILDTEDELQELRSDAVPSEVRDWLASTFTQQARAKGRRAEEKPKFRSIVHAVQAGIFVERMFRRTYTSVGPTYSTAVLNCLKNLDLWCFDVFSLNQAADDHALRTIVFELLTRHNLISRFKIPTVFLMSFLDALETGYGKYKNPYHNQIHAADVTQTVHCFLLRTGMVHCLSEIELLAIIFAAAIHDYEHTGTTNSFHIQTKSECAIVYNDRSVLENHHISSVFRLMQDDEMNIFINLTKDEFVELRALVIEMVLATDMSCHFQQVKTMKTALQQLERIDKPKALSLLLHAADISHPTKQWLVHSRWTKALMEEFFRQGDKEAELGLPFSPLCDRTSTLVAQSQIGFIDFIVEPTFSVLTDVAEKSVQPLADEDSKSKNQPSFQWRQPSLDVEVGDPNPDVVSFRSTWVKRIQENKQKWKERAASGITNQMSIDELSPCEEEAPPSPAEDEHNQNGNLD
T3 sequence (P54750 whole entry): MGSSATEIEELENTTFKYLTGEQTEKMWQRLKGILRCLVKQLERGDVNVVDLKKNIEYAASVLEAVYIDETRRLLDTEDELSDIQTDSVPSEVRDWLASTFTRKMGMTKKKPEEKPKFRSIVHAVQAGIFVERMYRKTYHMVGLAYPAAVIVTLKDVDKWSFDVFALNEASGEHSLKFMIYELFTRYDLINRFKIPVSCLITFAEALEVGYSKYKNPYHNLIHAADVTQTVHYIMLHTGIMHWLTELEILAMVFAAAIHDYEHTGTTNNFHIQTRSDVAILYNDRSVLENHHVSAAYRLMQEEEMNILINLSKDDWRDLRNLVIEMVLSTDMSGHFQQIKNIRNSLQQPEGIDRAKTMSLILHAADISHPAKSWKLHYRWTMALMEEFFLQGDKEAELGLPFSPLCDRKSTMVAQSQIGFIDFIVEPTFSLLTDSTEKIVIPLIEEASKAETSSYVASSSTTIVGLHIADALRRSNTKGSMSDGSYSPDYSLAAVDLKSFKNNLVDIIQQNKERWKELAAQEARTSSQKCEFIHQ

- PDE1B selectivity (versus PDE9A2) (PDE1B; [1]): 403
- IC50 (PDE9A2; [2]): < 1000 nM
- PDE1A selectivity (versus PDE9A2) (PDE1A; [1]): 229
Compound: CC1CN(Cc2nccc(C3CC3)n2)CC1c1nn2c(C3CCOCC3)ncc2c(=O)[nH]1 (single isomer, unassigned; (+)) [(+)-2-((3,4-trans)-1-((4-cyclopropylpyrimidin-2-yl)methyl)-4-methylpyrrolidin-3-yl)-7-(tetrahydro-2H-pyran-4-yl)imidazo[5,1-f][1,2,4]triazin-4(3H)-one]

- PDE1B selectivity (versus PDE9A2) (PDE1B; [3]): 456
- IC50 (PDE9A2; [4]): < 1000 nM
- PDE1A selectivity (versus PDE9A2) (PDE1A; [5]): 466
Compound: COc1ccnc(CN2CC(C)C(c3nn4c(C5CCOCC5)ncc4c(=O)[nH]3)C2)c1 (single isomer, unassigned; (+)) [(+)-2-((3,4-trans)-1-((4-methoxypyridin-2-yl)methyl)-4-methylpyrrolidin-3-yl)-7-(tetrahydro-2H-pyran-4-yl)imidazo[5,1-f][1,2,4]triazin-4(3H)-one]

- PDE1B selectivity (versus PDE9A2) (PDE1B; [6]): 184
- IC50 (PDE9A2; [7]): < 1000 nM
- PDE1A selectivity (versus PDE9A2) (PDE1A; [8]): 107
Compound: CC1CN(Cc2ccc(Cl)cn2)CC1c1nn2c(C3CCOCC3)ncc2c(=O)[nH]1 (single isomer, unassigned; (+)) [(+)-2-((3,4-trans)-1-((5-chloropyridin-2-yl)methyl)-4-methylpyrrolidin-3-yl)-7-(tetrahydro-2H-pyran-4-yl)imidazo[5,1-f][1,2,4]triazin-4(3H)-one]

- PDE1B selectivity (versus PDE9A2) (PDE1B; [1]): 154
- IC50 (PDE9A2; [2]): < 1000 nM
- PDE1A selectivity (versus PDE9A2) (PDE1A; [1]): 95
Compound: CC1CN(Cc2ncc(Cl)cn2)CC1c1nn2c(C3CCOCC3)ncc2c(=O)[nH]1 (single isomer, unassigned; (+)) [(+)-2-((3,4-trans)-1-((5-chloropyrimidin-2-yl)methyl)-4-methylpyrrolidin-3-yl)-7-(tetrahydro-2H-pyran-4-yl)imidazo[5,1-f][1,2,4]triazin-4(3H)-one]

- PDE1B selectivity (versus PDE9A2) (PDE1B; [1]): 670
- IC50 (PDE9A2; [2]): < 1000 nM
- PDE1A selectivity (versus PDE9A2) (PDE1A; [1]): 151
Compound: CC1CN(Cc2ncc(C3CC3)cn2)CC1c1nn2c(C3CCOCC3)ncc2c(=O)[nH]1 (single isomer, unassigned; (+)) [(+)-2-((3,4-trans)-1-((5-cyclopropylpyrimidin-2-yl)methyl)-4-methylpyrrolidin-3-yl)-7-(tetrahydro-2H-pyran-4-yl)imidazo[5,1-f][1,2,4]triazin-4(3H)-one]

- PDE1B selectivity (versus PDE9A2) (PDE1B; [3]): 377
- IC50 (PDE9A2; [4]): < 1000 nM
- PDE1A selectivity (versus PDE9A2) (PDE1A; [5]): 273
Compound: CC1CN(Cc2ccc(F)cn2)CC1c1nn2c(C3CCOCC3)ncc2c(=O)[nH]1 (single isomer, unassigned; (+)) [(+)-2-((3,4-trans)-1-((5-fluoropyridin-2-yl)methyl)-4-methylpyrrolidin-3-yl)-7-(tetrahydro-2H-pyran-4-yl)imidazo[5,1-f][1,2,4]triazin-4(3H)-one]

- PDE1B selectivity (versus PDE9A2) (PDE1B; [1]): 279
- IC50 (PDE9A2; [2]): < 1000 nM
- PDE1A selectivity (versus PDE9A2) (PDE1A; [1]): 133
Compound: CC1CN(Cc2ncc(F)cn2)CC1c1nn2c(C3CCOCC3)ncc2c(=O)[nH]1 (single isomer, unassigned; (+)) [(+)-2-((3,4-trans)-1-((5-fluoropyrimidin-2-yl)methyl)-4-methylpyrrolidin-3-yl)-7-(tetrahydro-2H-pyran-4-yl)imidazo[5,1-f][1,2,4]triazin-4(3H)-one]

- PDE1B selectivity (versus PDE9A2) (PDE1B; [9]): 540
- IC50 (PDE9A2; read-out: Band (PDE9A2 IC50)): < 1000 nM
- PDE1A selectivity (versus PDE9A2) (PDE1A; [9]): 216
Compound: COc1ccc(CN2CC(C)C(c3nn4c(C5CCOCC5)ncc4c(=O)[nH]3)C2)nc1 (single isomer, unassigned; (+)) [(+)-2-((3,4-trans)-1-((5-methoxypyridin-2-yl)methyl)-4-methylpyrrolidin-3-yl)-7-(tetrahydro-2H-pyran-4-yl)imidazo[5,1-f][1,2,4]triazin-4(3H)-one]

- PDE1B selectivity (versus PDE9A2) (PDE1B; [6]): 1780
- IC50 (PDE9A2; [7]): < 1000 nM
- PDE1A selectivity (versus PDE9A2) (PDE1A; [8]): 1060
Compound: COc1cncc(CN2CC(C)C(c3nn4c(C5CCOCC5)ncc4c(=O)[nH]3)C2)c1 (single isomer, unassigned; (+)) [(+)-2-((3,4-trans)-1-((5-methoxypyridin-3-yl)methyl)-4-methylpyrrolidin-3-yl)-7-(tetrahydro-2H-pyran-4-yl)imidazo[5,1-f][1,2,4]triazin-4(3H)-one]

- PDE1B selectivity (versus PDE9A2) (PDE1B; [1]): 64
- IC50 (PDE9A2; [2]): < 1000 nM
- PDE1A selectivity (versus PDE9A2) (PDE1A; [1]): 26
Compound: COc1cnc(CN2CC(C)C(c3nn4c(C5CCOCC5)ncc4c(=O)[nH]3)C2)nc1 (single isomer, unassigned; (+)) [(+)-2-((3,4-trans)-1-((5-methoxypyrimidin-2-yl)methyl)-4-methylpyrrolidin-3-yl)-7-(tetrahydro-2H-pyran-4-yl)imidazo[5,1-f][1,2,4]triazin-4(3H)-one]

- PDE1B selectivity (versus PDE9A2) (PDE1B; [10]): 571
- IC50 (PDE9A2; [11]): < 1000 nM
- PDE1A selectivity (versus PDE9A2) (PDE1A; [10]): 579
Compound: COc1cccc(CN2CC(C)C(c3nn4c(C5CCOCC5)ncc4c(=O)[nH]3)C2)n1 (single isomer, unassigned; (+)) [(+)-2-((3,4-trans)-1-((6-methoxypyridin-2-yl)methyl)-4-methylpyrrolidin-3-yl)-7-(tetrahydro-2H-pyran-4-yl)imidazo[5,1-f][1,2,4]triazin-4(3H)-one]

- PDE1B selectivity (versus PDE9A2) (PDE1B; [3]): 76
- IC50 (PDE9A2; [4]): < 1000 nM
- PDE1A selectivity (versus PDE9A2) (PDE1A; [5]): 39
Compound: CC1CN(Cc2ccc3cccc(F)c3n2)CC1c1nn2c(C3CCOCC3)ncc2c(=O)[nH]1 (single isomer, unassigned; (+)) [(+)-2-((3,4-trans)-1-((8-fluoroquinolin-2-yl)methyl)-4-methylpyrrolidin-3-yl)-7-(tetrahydro-2H-pyran-4-yl)imidazo[5,1-f][1,2,4]triazin-4(3H)-one]

- PDE1B selectivity (versus PDE9A2) (PDE1B; [12]): 10
- IC50 (PDE9A2; read-out: Band (PDE9A2 IC50)): < 1000 nM
- PDE1A selectivity (versus PDE9A2) (PDE1A; [13]): 3
Compound: CC1CN(Cc2nc3ccccn3n2)CC1c1nn2c(-c3cccc(F)c3)ncc2c(=O)[nH]1 (single isomer, unassigned; (+)) [(+)-2-((3,4-trans)-1-([1,2,4]triazolo[1,5-a]pyridin-2-ylmethyl)-4-methylpyrrolidin-3-yl)-7-(3-fluorophenyl)imidazo[5,1-f][1,2,4]triazin-4(3H)-one]

- PDE1B selectivity (versus PDE9A2) (PDE1B; [10]): 1847
- IC50 (PDE9A2; [11]): < 1000 nM
- PDE1A selectivity (versus PDE9A2) (PDE1A; [10]): 597
Compound: CC1CN(Cc2nc3ccccn3n2)CC1c1nn2c(C3CCC(F)(F)CC3)ncc2c(=O)[nH]1 (single isomer, unassigned; (+)) [(+)-2-((3,4-trans)-1-([1,2,4]triazolo[1,5-a]pyridin-2-ylmethyl)-4-methylpyrrolidin-3-yl)-7-(4,4-difluorocyclohexyl)imidazo[5,1-f][1,2,4]triazin-4(3H)-one]

- PDE1B selectivity (versus PDE9A2) (PDE1B; [12]): 2140
- IC50 (PDE9A2; read-out: Band (PDE9A2 IC50)): < 1000 nM
- PDE1A selectivity (versus PDE9A2) (PDE1A; [13]): 1000
Compound: Cc1cc(F)c(F)cc1-c1ncc2c(=O)[nH]c(C3CN(Cc4nc5ccccn5n4)CC3C)nn12 (single isomer, unassigned; (+)) [(+)-2-((3,4-trans)-1-([1,2,4]triazolo[1,5-a]pyridin-2-ylmethyl)-4-methylpyrrolidin-3-yl)-7-(4,5-difluoro-2-methylphenyl)imidazo[5,1-f][1,2,4]triazin-4(3H)-one]

- PDE1B selectivity (versus PDE9A2) (PDE1B; ratio of IC50 values PDE1B vs PDE9A2, value greater than 1 indicates greater selectivity for PDE9A2): 473
- IC50 (PDE9A2; IC50 band, 4.0 μM cGMP substrate, 1 hour at R.T.): < 1000 nM
- PDE1A selectivity (versus PDE9A2) (PDE1A; ratio of IC50 values PDE1A vs PDE9A2, value greater than 1 indicates greater selectivity for PDE9A2): 215
Compound: Cc1cc(F)ccc1-c1ncc2c(=O)[nH]c(C3CN(Cc4nc5ccccn5n4)CC3C)nn12 (single isomer, unassigned; (+)) [(+)-2-((3,4-trans)-1-([1,2,4]triazolo[1,5-a]pyridin-2-ylmethyl)-4-methylpyrrolidin-3-yl)-7-(4-fluoro-2-methylphenyl)imidazo[5,1-f][1,2,4]triazin-4(3H)-one]

- PDE1B selectivity (versus PDE9A2) (PDE1B; [12]): 87
- IC50 (PDE9A2; read-out: Band (PDE9A2 IC50)): < 1000 nM
- PDE1A selectivity (versus PDE9A2) (PDE1A; [13]): 87
Compound: CC1CN(Cc2nc3ccccn3n2)CC1c1nn2c(-c3ccc(F)cc3)ncc2c(=O)[nH]1 (single isomer, unassigned; (+)) [(+)-2-((3,4-trans)-1-([1,2,4]triazolo[1,5-a]pyridin-2-ylmethyl)-4-methylpyrrolidin-3-yl)-7-(4-fluorophenyl)imidazo[5,1-f][1,2,4]triazin-4(3H)-one]

- PDE1B selectivity (versus PDE9A2) (PDE1B; [12]): 115
- IC50 (PDE9A2; read-out: Band (PDE9A2 IC50)): < 1000 nM
- PDE1A selectivity (versus PDE9A2) (PDE1A; [13]): 56
Compound: Cc1ccncc1-c1ncc2c(=O)[nH]c(C3CN(Cc4nc5ccccn5n4)CC3C)nn12 (single isomer, unassigned; (+)) [(+)-2-((3,4-trans)-1-([1,2,4]triazolo[1,5-a]pyridin-2-ylmethyl)-4-methylpyrrolidin-3-yl)-7-(4-methylpyridin-3-yl)imidazo[5,1-f][1,2,4]triazin-4(3H)-one]
